Patent US8557816B2, “Aurora kinase modulators and method of use” (Amgen Inc., priority 2007, dated 2013)

Key:
[1] = target: T1, AuroraA-TPX2 (Homo sapiens, UniProt O14965); assay: AuroraA-TPX2 Homogeneous Time Resolved Fluorescent (HTRF) kinase assay; assay type: biochemical; details: average; read-out: AurA_IC50_IP (uM Avg)
T1 construct: 20 μL of AuroraA-TPX2 KD GST for a final volume of about 41 μL; GST
T1 sequence (O14965 133-383 limits assumed): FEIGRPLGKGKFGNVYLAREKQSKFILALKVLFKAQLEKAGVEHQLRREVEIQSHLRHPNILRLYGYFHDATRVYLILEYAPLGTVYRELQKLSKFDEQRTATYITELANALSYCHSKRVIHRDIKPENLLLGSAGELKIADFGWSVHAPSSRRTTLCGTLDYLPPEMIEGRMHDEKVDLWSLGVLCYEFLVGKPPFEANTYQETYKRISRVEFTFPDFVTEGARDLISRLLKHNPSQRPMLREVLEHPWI
T1 sequence (Q9ULW0 1-43 partner limits assumed): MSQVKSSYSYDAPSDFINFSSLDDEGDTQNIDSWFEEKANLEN
In short: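 HTRF read-out (Eu 615 nm to APC 655 nm) of phosphorylated biotin-PLK, detected with 0.02 nM europium anti-phosphoPLK antibody and 0.0005 mg/mL SA-APC after overnight equilibration.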

[2] = target: T2, AuroraB (Homo sapiens, UniProt Q96GD4); assay: AuroraB Homogeneous Time Resolved Fluorescent (HTRF) kinase assay; assay type: biochemical; details: average; read-out: AurB_IC50_IP (uM Avg)
T2 construct: 20 μL of AuroraB FL H is for a final volume of 41 μL; His
In short: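 Full-length His-tagged kinase phosphorylates biotinylated Histone H3 (0.1 μM final) with ATP in pH 7.5 HEPES containing MgCl, MnCl, DTT and BSA for about 90 min. EDTA-containing detection mix with SA-APC and Eu-anti-phosphoHistone H3 then equilibrated about 60 min; HTRF read with 320 nm excitation, emissions 615/655 nm.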

T2 sequence (Q96GD4 whole entry): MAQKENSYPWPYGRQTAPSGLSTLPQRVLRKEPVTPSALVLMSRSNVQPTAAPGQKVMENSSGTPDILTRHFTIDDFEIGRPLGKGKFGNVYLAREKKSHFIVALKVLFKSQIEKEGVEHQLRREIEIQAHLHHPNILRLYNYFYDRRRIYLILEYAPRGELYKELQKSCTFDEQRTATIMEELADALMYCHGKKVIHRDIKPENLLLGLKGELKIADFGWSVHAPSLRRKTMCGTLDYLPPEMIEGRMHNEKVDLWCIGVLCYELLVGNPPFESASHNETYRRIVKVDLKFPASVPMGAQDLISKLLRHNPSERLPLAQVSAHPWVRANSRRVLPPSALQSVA

| SMILES | IC50 [1] [µM] | IC50 [2] [µM] |
| --- | --- | --- |
| COc1cnc2c(Sc3ccc(Nc4nnc(N5CCC(Cl)CC5)c5ccccc45)cc3)ccnc2c1 [compound 527] | 0.036 | 0.138 |
| COc1cnc2c(Sc3ccc(Nc4nnc(-c5cc(C)cs5)c5ccccc45)cc3F)ccnc2c1 [compound 528] | 0.064 | 0.293 |
| COc1cnc2c(Sc3ccc(Nc4nnc(-c5ccc(C)c(OC)c5)c5ccccc45)cc3)ccnc2c1 [compound 529] | 0.02 | 0.037 |
| COc1cnc2c(Sc3ccc(Nc4nnc(-c5ccc6c(c5)OCO6)c5ccccc45)cc3)ccnc2c1 [compound 530] | 0.014 | 0.014 |
| COc1cnc2c(Sc3ccc(Nc4nnc(N5CCC(F)(F)CC5)c5ccccc45)cc3)ccnc2c1 [compound 531] | 0.089 | 0.024 |
| COc1cnc2c(Sc3ccc(Nc4nnc(N5CCC[C@@H](OC)C5)c5ccccc45)cc3)ccnc2c1 [compound 532] | 0.061 | 0.019 |
| COCCNc1nnc(Nc2ccc(Sc3ccnc4cc(OC)cnc34)cc2)c2ccccc12 [compound 533] | 0.045 | 0.03 |
| COC1CCN(c2nnc(Nc3ccc(Sc4ccnc5cc(C#N)ccc45)cc3)c3ccccc23)CC1 [compound 534] | 0.035 | 0.02 |
| COCCCNc1nnc(Nc2ccc(Sc3ccnc4cc(OC)cnc34)cc2)c2ccccc12 [compound 535] | 0.022 | 0.02 |
| COc1cnc2c(Sc3ccc(Nc4nnc(Cl)c5ccccc45)cc3)ccnc2c1 [compound 536] | 0.812 | 0.031 |
| COc1cnc2c(Sc3ccc(Nc4nnc(NCCc5ccccn5)c5ccccc45)cc3)ccnc2c1 [compound 537] | 0.198 | 0.111 |
| COc1cnc2c(Sc3ccc(Nc4nnc(N5CCC(N6CCCC6)CC5)c5ccccc45)cc3)ccnc2c1 [compound 538] | 3.43 | 0.045 |
| COc1cnc2c(Oc3ccc(Nc4nnc(-c5cc(F)cc(F)c5)c5ccccc45)cc3)ccnc2c1 [compound 539] | 0.133 | 0.02 |
| COc1cnc2c(Sc3ccc(Nc4nnc(C5CC5)c5ccccc45)cc3)ccnc2c1 [compound 541] | 0.393 | 0.025 |
| COc1cnc2c(Oc3ccc(Nc4nncc5ccccc45)cc3)ccnc2c1 [compound 542, N-(4-((7-methoxy-1,5-naphthyridin-4-yl)oxy)phenyl)-1-phthalazinamine] | 0.319 | 0.041 |
| COc1cnc2c(Oc3ccc(Nc4nnc(C5CC5)c5ccccc45)cc3)ccnc2c1 [compound 543] | 0.581 | 0.044 |
| COc1cnc2c(Oc3ccc(Nc4nnc(-c5ccc(C)c(N)c5)c5cc(F)c(F)cc45)cc3)ccnc2c1 [compound 545] | 0.085 | 0.02 |
| COc1cnc2c(Oc3ccc(Nc4nnc(-c5ccccc5Cl)c5ccccc45)cc3)ccnc2c1 [compound 546] | 0.723 | 0.135 |
| COc1cnc2c(Sc3ccc(Nc4nncc5ccccc45)cc3)ccnc2c1 [compound 547, N-(4-((7-methoxy-1,5-naphthyridin-4-yl)sulfanyl)phenyl)-1-phthalazinamine] | 0.335 | 0.02 |

| SMILES | IC50 [1] [µM] | IC50 [2] [µM] |
| --- | --- | --- |
| COc1ccc2nccc(Sc3ccc(Nc4nnc(N5CCCCC5)c5ccccc45)cc3)c2n1 [compound 548] | 0.27 | 0.031 |
| COc1ccc2nccc(Sc3ccc(Nc4nnc(-c5cc(C)cs5)c5ccccc45)cc3)c2n1 [compound 549] | 0.098 | 0.064 |
| COc1ccc2nccc(Sc3ccc(Nc4nnc(-c5ccc(Cl)cn5)c5ccccc45)cc3)c2n1 [compound 550] | 0.107 | 0.022 |
| COc1ccc2nccc(Oc3ccc(Nc4nnc(-c5ccc6c(c5)OCO6)c5ccccc45)cc3)c2n1 [compound 551] | 0.096 | 0.017 |
| COc1ccc2nccc(Oc3ccc(Nc4nnc(-c5cc(C)cs5)c5ccccc45)cc3)c2n1 [compound 552] | 0.056 | 0.036 |
| Cc1ccc(-c2nnc(Nc3ccc(Sc4ccnc5cccnc45)cc3)c3ccccc23)cn1 [compound 553] | 0.042 | 0.005 |
| COc1ccc2nccc(Oc3ccc(Nc4nnc(-c5ccc(C)cn5)c5ccccc45)cc3)c2c1 [compound 554] | 0.172 | 0.011 |
| COc1cnc2c(Sc3ccc(Nc4nnc(N5CCCC(C)(C)C5)c5ccccc45)cc3)ccnc2c1 [compound 555] | 0.102 | 0.105 |
| COc1cnc2c(Sc3ccc(Nc4nnc(N5CC(C)CC(C)C5)c5ccccc45)cc3)ccnc2c1 (stereo not shown) [compound 556] | 0.116 | 0.159 |
| COc1cnc2c(Sc3ccc(Nc4nnc(N5CCC(F)CC5)c5ccccc45)cc3)ccnc2c1 [compound 557] | 0.161 | 0.059 |
| COc1cnc2c(Sc3ccc(Nc4nnc(C(C)C)c5ccccc45)cc3)ccnc2c1 [compound 558] | 0.378 | 0.041 |
| Cc1cc2nccc(Sc3ccc(Nc4nnc(-c5ccc(Cl)cc5)c5ccccc45)cc3)c2s1 [compound 559] | 0.168 | 0.098 |
| Cc1cc2nccc(Sc3ccc(Nc4nnc(-c5ccc(Cl)cn5)c5ccccc45)cc3)c2s1 [compound 560] | 0.416 | 0.081 |
| c1ccc(-c2nnc(Nc3ccc(Sc4ncnc5ccccc45)cc3)c3ccccc23)cc1 [compound 561] | > 25 | > 5 |
| Clc1ccc(-c2nnc(Nc3ccc(Oc4ncnc5ccccc45)cc3)c3ccccc23)cc1 [compound 562] | 0.107 | 0.006 |
| COc1cnc2c(Sc3ccc(Nc4nnc(N5CCN6CCC[C@H]6C5)c5ccccc45)cc3)ccnc2c1 [compound 563] | 0.023 | 0.009 |
| COc1ccc2ncnc(Oc3ccc(Nc4nnc(-c5ccc(Cl)cc5)c5ccccc45)cc3)c2c1 [compound 564] | > 25 | 0.129 |
| COc1ccc2ncnc(Oc3ccc(Nc4nnc(-c5cc(C)cs5)c5ccccc45)cc3)c2c1 [compound 565] | 0.686 | 0.108 |
| COc1cnc2c(Oc3ccc(Nc4nnc(-c5ccc(Cl)cc5)c5ccccc45)cc3OC)ccnc2c1 [compound 566] | 0.093 | 0.043 |

| SMILES | IC50 [1] [µM] | IC50 [2] [µM] |
| --- | --- | --- |
| COc1cnc2c(Oc3ccc(Nc4nnc(-c5cc(C)cs5)c5ccccc45)cc3OC)ccnc2c1 [compound 567] | 0.092 | 0.041 |
| Cc1csc(-c2nnc(Nc3ccc(Oc4ncnc5ccccc45)cc3)c3ccccc23)c1 [compound 568] | 0.233 | 0.011 |
| O=c1ccc2nccc(Oc3ccc(Nc4nnc(-c5ccc(Cl)cc5)c5ccccc45)cc3)c2[nH]1 [compound 569] | 0.128 | 0.013 |
| Clc1ccc(-c2nnc(Nc3ccc(Sc4ccnc5c4CCCN5)cc3)c3ccccc23)cc1 [compound 570] | 0.05 | 0.008 |
| FC(F)(F)Oc1ccc2nccc(Sc3ccc(Nc4nnc(-c5ccccc5)c5ccccc45)cc3)c2c1 [compound 571] | > 25 | > 25 |
| Cc1csc(-c2nnc(Nc3ccc(Sc4ccnc5ccc(OC(F)(F)F)cc45)cc3)c3ccccc23)c1 [compound 572] | > 25 | > 25 |
| COc1cc(OC)c2c(Oc3ccc(Nc4nnc(-c5cc(C)cs5)c5ccccc45)cc3)ncnc2c1 [compound 573] | 0.042 | 0.114 |
| FC(F)(F)Oc1ccc2nccc(Oc3ccc(Nc4nnc(-c5ccc(Cl)cc5)c5ccccc45)cc3)c2c1 [compound 574] | 0.752 | 0.365 |
| Cc1csc(-c2nnc(Nc3ccc(Oc4ccnc5ccc(OC(F)(F)F)cc45)cc3)c3ccccc23)c1 [compound 575] | 0.226 | 0.81 |
| COc1cnc2c(Sc3ccc(Nc4nnc(N5CCn6ccnc6C5)c5ccccc45)cc3)ccnc2c1 [compound 576] | 0.077 | 0.026 |
| c1ccc(-c2nnc(Nc3ccc(Sc4ccnc5c4CCCN5)cc3)c3ccccc23)cc1 [compound 577] | 0.428 | 0.021 |
| COc1cnc2c(Sc3ccc(Nc4nnc(N5CCc6sccc6C5)c5ccccc45)cc3)ccnc2c1 [compound 578] | 0.033 | 0.081 |
| COc1cnc2c(Sc3ccc(Nc4nnc(N5CCn6ncnc6C5)c5ccccc45)cc3)ccnc2c1 [compound 579] | 0.228 | 0.032 |
| COc1cnc2c(Sc3ccc(Nc4nnc(N5CCN6CCCC[C@@H]6C5)c5ccccc45)cc3)ccnc2c1 [compound 580] | 0.023 | 0.005 |
| COc1cc(OC)c2c(Sc3ccc(Nc4nnc(-c5ccccc5)c5ccccc45)cc3)ncnc2c1 [compound 581] | 1.13 | 0.236 |
| COc1cnc2c(Sc3ccc(Nc4nnc(N5CCN6CCC[C@@H]6C5)c5ccccc45)cc3)ccnc2c1 [compound 582] | 0.029 | 0.006 |
| COc1cnc2c(Sc3ccc(Nc4nnc(-c5ccc(OC)nc5)c5ccccc45)cc3)ccnc2c1 [compound 583] | 0.028 | 0.008 |
| COc1cnc2c(Sc3ccc(Nc4nnc(N5CCN6CCCC[C@@H]6C5)c5ccccc45)cc3)ccnc2c1 [compound 584] | 0.009 | 0.005 |
